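Assay format: 96-well plates, 48-hour exposure. The concentration for 50% growth inhibition is given as GI50. TGI denotes the concentration required for complete inhibition of growth.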
What was measured:
Test in all cases: growth of human tumour cells (NCI), 48 h
[1] = test system: 786-0 renal
[2] = test system: A498 renal
[3] = test system: A549 NSCLC
[4] = test system: ACHN renal
[5] = test system: BT-549 breast
[6] = test system: CAKI-1 renal
[7] = test system: CCRF-CEM leukemia
[8] = test system: COLO 205 colon
[9] = test system: DU-145 prostate
[10] = test system: EKVX NSCLC
[11] = test system: HCC-2998 colon
[12] = test system: HCT-116 colon
[13] = test system: HCT-15 colon
[14] = test system: HL-60(TB) leukemia
[15] = test system: HOP-62 NSCLC
[16] = test system: HOP-92 NSCLC
[17] = test system: HT29 colon
[18] = test system: IGROV1 ovarian
[19] = test system: K-562 leukemia
[20] = test system: KM12 colon
[21] = test system: LOX IMVI melanoma
[22] = test system: MALME-3M melanoma
[23] = test system: MCF7 breast
[24] = test system: MDA-MB-231 breast
[25] = test system: MDA-MB-435
[26] = test system: MDA-MB-468 breast
[27] = test system: NCI-H226 lung
[28] = test system: NCI-H23 lung
[29] = test system: NCI-H460 lung
[30] = test system: NCI-H522 lung
[31] = test system: OVCAR-3 ovarian
[32] = test system: OVCAR-4 ovarian
[33] = test system: OVCAR-5 ovarian
[34] = test system: OVCAR-8 ovarian
[35] = test system: PC-3 prostate
[36] = test system: RPMI-8226 leukemia
[37] = test system: RXF 393 renal
[38] = test system: SF-268 CNS
[39] = test system: SF-295 CNS
[40] = test system: SF-539 CNS
[41] = test system: SK-MEL-2 melanoma
[42] = test system: SK-MEL-28 melanoma
[43] = test system: SK-MEL-5 melanoma
[44] = test system: SK-OV-3 ovarian
[45] = test system: SN12C renal
[46] = test system: SNB-19 CNS
[47] = test system: SR leukemia
[48] = test system: SW-620 colon
[49] = test system: T-47D breast
[50] = test system: TK-10 renal
[51] = test system: U251 CNS
[52] = test system: UACC-257 melanoma
[53] = test system: UACC-62 melanoma
[54] = test system: UO-31 renal

COc1cc(/C=C/C(=O)c2cnn(-c3cc(=O)[nH]c4ccc(Br)cc34)c2C)cc(OC)c1OC
GI50 [1]: 3.63 µM | TGI [1]: 14.3 µM | GI50 [2]: 28.5 µM | TGI [2]: 51.6 µM | GI50 [3]: 3.52 µM | TGI [3]: > 100 µM | GI50 [4]: 1.84 µM | TGI [4]: 4.31 µM | GI50 [5]: 2.29 µM | TGI [5]: 6.28 µM | GI50 [6]: 4.11 µM | TGI [6]: 31.3 µM | GI50 [7]: 2.88 µM | TGI [7]: > 100 µM | GI50 [8]: 3.35 µM | TGI [8]: 10.9 µM | GI50 [9]: 3.61 µM | TGI [9]: 30.5 µM | GI50 [10]: 2.96 µM | TGI [10]: 13.4 µM | GI50 [11]: 3.3 µM | TGI [11]: 11 µM | GI50 [12]: 3.27 µM | TGI [12]: 11.5 µM | GI50 [13]: 1.71 µM | TGI [13]: 3.92 µM | GI50 [14]: 3 µM | TGI [14]: > 100 µM | GI50 [15]: 3.55 µM | TGI [15]: 17.2 µM | GI50 [16]: 8.2 µM | TGI [16]: > 100 µM | GI50 [17]: 2.2 µM | TGI [17]: 5.07 µM | GI50 [18]: 2.23 µM | TGI [18]: 6.33 µM | GI50 [19]: 2.86 µM | TGI [19]: > 100 µM | GI50 [20]: 3.48 µM | TGI [20]: 14.6 µM | GI50 [21]: 1.49 µM | TGI [21]: 3.35 µM | GI50 [22]: 4.66 µM | TGI [22]: 22.3 µM | GI50 [23]: 2.16 µM | TGI [23]: 9.06 µM | GI50 [24]: 3.11 µM | TGI [24]: 13.7 µM | GI50 [25]: 2.72 µM | TGI [25]: 8.65 µM | GI50 [26]: 1.93 µM | TGI [26]: 5.43 µM | GI50 [27]: 2.49 µM | TGI [27]: 7.38 µM | GI50 [28]: 1.92 µM | TGI [28]: 4.33 µM | GI50 [29]: 2.39 µM | TGI [29]: 5.37 µM | GI50 [30]: 2.26 µM | TGI [30]: 5.98 µM | GI50 [31]: 3.45 µM | TGI [31]: 12.1 µM | GI50 [32]: 5.2 µM | TGI [32]: > 100 µM | GI50 [33]: 3.09 µM | TGI [33]: 10.7 µM | GI50 [34]: 3.48 µM | TGI [34]: > 100 µM | GI50 [35]: 5.19 µM | TGI [35]: > 100 µM | GI50 [36]: 2.84 µM | TGI [36]: > 100 µM | GI50 [37]: 1.87 µM | TGI [37]: 3.95 µM | GI50 [38]: 3.76 µM | TGI [38]: > 100 µM | GI50 [39]: 2.4 µM | TGI [39]: 7.75 µM | GI50 [40]: 2.03 µM | TGI [40]: 4.54 µM | GI50 [41]: 3.52 µM | TGI [41]: 12.2 µM | GI50 [42]: 2.84 µM | TGI [42]: 8.75 µM | GI50 [43]: 3.05 µM | TGI [43]: 10.7 µM | GI50 [44]: 4.34 µM | TGI [44]: > 100 µM | GI50 [45]: 2.94 µM | TGI [45]: 11.6 µM | GI50 [46]: 3.25 µM | TGI [46]: 12.6 µM | GI50 [47]: 2.44 µM | TGI [47]: > 100 µM | GI50 [48]: 3.09 µM | TGI [48]: 8.61 µM | GI50 [49]: 3.06 µM | TGI [49]: 18.8 µM | GI50 [50]: 3.8 µM | TGI [50]: 24.1 µM | GI50 [51]: 2.54 µM | TGI [51]: 7.37 µM | GI50 [52]: 7.78 µM | TGI [52]: 48.5 µM | GI50 [53]: 1.79 µM | TGI [53]: 4 µM | GI50 [54]: 2.83 µM | TGI [54]: 12.5 µM

From PubChem BioAssay (NCI)
